In US10160977B2, “Super-enhancers and methods of use thereof” (Whitehead Institute for Biomedical Research, priority 2012, dated 2018):
Counter-ions that a name gives are not always drawn.

How the values were obtained:
c-Myc/Max = c-Myc/Max (Homo sapiens, UniProt P01106); conditions: cited from earlier work
c-Myc [1] = target: T1, c-Myc (Homo sapiens, UniProt P01106); conditions: at concentrations of 10-40 μM; cited from earlier work
c-Myc [2] = target: T1, c-Myc; conditions: cited from earlier work
MM.1S cells = test: JQ1 sensitivity of MM.1S cells by measurement of ATP levels (CellTiterGlo); assay type: cell-based, human
Text: (§1) Schematic depicting the experimental procedure.

c-MYC [3] = test: Western blot of c-MYC protein levels after JQ1 or DMSO treatment; assay type: cell-based, human; conditions: MM.1S cells, 6 hours of JQ1 treatment
Text: as §1

P-TEFb = test: ChIP-Seq of P-TEFb occupancy in MM.1S cells after JQ1 treatment; assay type: cell-based, human
Text: FIGS. 9(A)-9(C) illustrate that loss of P-TEFb accompanies BRD4 inhibition. (FIG. 9A) P-TEFb generally occupies enhancers bound by Mediator and BRD4 in MM1.S cells. […] (FIG. 9C) P-TEFb is disproportionally lost at super-enhancers.
BRD4 recruits the active form of the positive transcription elongation factor P-TEFb, which stimulates pause release and transcription elongation (Bisgrove et al., 2007; Hargreaves et al., 2009; Jang et al., 2005; Jiang et al., 1998; Wu and Chiang, 2007; Wu et al., 2003; Yang et al., 2005). […] Furthermore, P-TEFb was disproportionately lost at super-enhancers when compared to normal enhancers (FIG. 9C). We conclude that BET bromodomain inhibition of BRD4 leads to loss of P-TEFb at enhancers and transcription start sites, and that the inhibition has more profound effects at super-enhancers than at average enhancers.

RNA Polymerase II = test: ChIP-seq of RNA Polymerase II after JQ1 treatment (transcription elongation); assay type: cell-based, human; conditions: MM.1S cells
Text: (FIG. 10B) Genes associated with super-enhancers show a dramatic defect in elongation.

pause release = test: Inhibition of pause release; assay type: cell-based
Text: It has undergone clinical trials in a number of different cancer types including various solid tumors and leukemias. […] Without wishing to be bound by theory, this may help counteract the effects of Myc overexpression, and this may be the basis for the therapeutic effect of flavopiridol on some tumors.

[4] = tested on: various tumor cells lines; conditions: cited from earlier work
xenograft models = conditions: in vivo; cited from earlier work
[5] = tested on: chicken embryo fibroblasts; conditions: cited from earlier work
HL60 cells = conditions: read-out: IC50, growth of HL60 cells; cited from earlier work
c-Myc [6] = target: T1, c-Myc; conditions: cited from earlier work; remark: listed apart in the source

Chain of c-Myc/Max (P01106 whole entry): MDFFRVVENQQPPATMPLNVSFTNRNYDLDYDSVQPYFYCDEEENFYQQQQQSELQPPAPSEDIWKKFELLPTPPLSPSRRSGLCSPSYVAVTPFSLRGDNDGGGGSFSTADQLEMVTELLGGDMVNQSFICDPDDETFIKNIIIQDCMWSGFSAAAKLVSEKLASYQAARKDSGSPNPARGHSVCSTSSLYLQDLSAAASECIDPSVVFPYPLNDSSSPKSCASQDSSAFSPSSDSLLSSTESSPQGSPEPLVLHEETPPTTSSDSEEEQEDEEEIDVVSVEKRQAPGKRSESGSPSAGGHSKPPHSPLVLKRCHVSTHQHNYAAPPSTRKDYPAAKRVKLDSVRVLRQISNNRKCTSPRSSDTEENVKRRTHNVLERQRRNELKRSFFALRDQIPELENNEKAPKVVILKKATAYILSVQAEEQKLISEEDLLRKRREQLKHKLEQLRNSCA
T1 sequence (P01106 whole entry): as above

Q: With `CCOC(=O)c1cnn(-c2ccccc2)c1NC(=O)c1cc2nc(-c3cccs3)cc(C(F)(F)F)n2n1` [Mycro3] as the molecule, how does the “inhibition of c-Myc/Max dimerization” value (c-Myc/Max) read?
A: The value was “inhibited”.

Q: And the “selectivity in vitro of inhibition of c-Myc/Max dimerization and DNA binding” value (c-Myc/Max; in vitro)?
A: The value was “very good selectivity”.

Q: And the “potency and selectivity against c-Myc in cellular assays” value (c-Myc [1])?
A: The value was “good potency and selectivity”.

Q: With `O=C(NCc1cccs1)c1cc2nc(-c3cccs3)cc(C(F)(F)F)n2n1` [Mycro2] as the molecule, how does the “specificity for c-Myc-dependent transcription over transcription mediated by AP-1 family proteins” value (c-Myc [2]) read?
A: The value was “weak-to-moderate specificity”.

Q: What about the “inhibition of c-Myc/Max dimerization” value (c-Myc/Max) of the same molecule?
A: Its value is “inhibit”.

Q: For `Cc1sc2c(c1C)C(c1ccc(Cl)cc1)=N[C@@H](CC(=O)OC(C)(C)C)c1nnc(C)n1-2` [JQ1], which “MM1.S cell viability, as measured by ATP levels” value (MM.1S cells; 6 hour treatments, various concentrations of JQ1) is on record?
A: The value was “little effect”.

Q: What about the “antiproliferative effect on MM1.S cells” value (MM.1S cells; later time points) of the same molecule?
A: Its value is “dramatic antiproliferative effect”.

Q: And the MYC protein levels (c-MYC [3])?
A: The MYC protein levels was “significantly depleted”.

Q: What about the “levels of P-TEFb at sites where there was a reduction in BRD4” value (P-TEFb) of the same molecule?
A: The value was “reduce the levels of P-TEFb”.

Q: And the “transcriptional elongation (PolII in the gene body and 3' transcription termination regions)” value (RNA Polymerase II)?
A: Its value is “global defect in transcriptional elongation”.

Q: With `CN1CC[C@H](c2c(O)cc(O)c3c(=O)cc(-c4ccccc4Cl)oc23)[C@H](O)C1` [Flavopiridol, (−)-2-(2-Chlorophenyl)-5,7-dihydroxy-8-[(3S,4R)-3-hydroxy-1-methyl-4-piperidinyl]-4H-1-benzopyran-4-one hydrochloride] as the molecule, how does the pause release (pause release) read?
A: Its pause release is “inhibit pause release”.

Q: And the “antitumor activity against various tumor cells lines” value [4]?
A: Its value is “antitumor activity”.

Q: And the “tumor growth in xenograft models” value (xenograft models)?
A: The value was “inhibit tumor growth”.

Q: Which “inhibition of c-Myc-dependent oncogenic transformation of chicken embryo fibroblasts” value ([5]; at 20 μM) does the source give for `COc1ccc(CN(C(=O)c2ccccn2)C(C(=O)NC2CCCCC2)c2ccc3cc(OCC(=O)OC(C)(C)C)ccc3c2)cc1` (stereo not shown) [NY2267] here?
A: Its value is “strongly inhibited”.

Q: And the “selectivity over transformation mediated by v-Src or v-Jun” value [5]?
A: The value was “showed selectivity”.

Q: What about the “discrimination between transcription mediated by c-Jun and c-Myc” value (c-Myc [2]) of the same molecule?
A: The value was “did not discriminate”.

Q: Which IC50 (HL60 cells) does the source give for `CCc1ccc(/C=C2/SC(=S)NC2=O)cc1` [10058-F4] here?
A: Its IC50 is 49 µM.

Q: Which Myc-regulated gene expression (c-Myc [6]) does the source give for `CN(C)CCCNc1cc(O)c2c(c1O)C(=O)c1ccccc1C2=O` [MYRA-A] here?
A: The Myc-regulated gene expression was “inhibit”.

Q: What about the apoptosis (c-Myc [6]) of the same molecule?
A: Its apoptosis is “induce apoptosis in a Myc-dependent manner”.

Q: With `CNC(=O)c1cc2c(cc1C(=O)NC[C@H](NS(=O)(=O)c1c(Cl)sc(Cl)c1Br)C(=O)OC(C)(C)C)CN(C(=O)CCC1CCN(C(=O)OC(C)(C)C)CC1)C2` [IIA6B17] as the molecule, how does the “inhibition of c-Myc-dependent transcription in a reporter gene assay” value (c-Myc [2]) read?
A: Its value is “inhibit”.

Q: With `COc1ccc(CNC(=O)c2cc3nc(-c4cccs4)cc(C(F)(F)F)n3n2)cc1` [Mycro1] as the molecule, how does the “specificity for c-Myc-dependent transcription over transcription mediated by AP-1 family proteins” value (c-Myc [2]) read?
A: Its value is “weak-to-moderate specificity”.

Q: And the “inhibition of c-Myc/Max dimerization” value (c-Myc/Max)?
A: Its value is “inhibit”.
